Measurements taken from patent US11491165B2 (Kinoxis Therapeutics Pty Ltd, priority 2016, dated 2022).

How the values were obtained:
[1] = molecular target: T1, oxytocin receptor (OXTR), hOTR (Homo sapiens, UniProt P30559); assay: IP1 accumulation assay, OTR-expressing HEK-293 cells (agonist and antagonist assessment); type: cell-based; settings: for Emax: HEK293, read-out: OXTR Emax (% OXT); for EC50 (OXTR agonist potency, mean ± s.d.) / EC50: agonist assessment; for EC50 (OXTR agonist potency, mean ± s.d.) / IC50: IP1; for EC50: IP1, 1 h; for IC50: antagonist assessment vs OT 30 nM (~EC70); for OV function: ratio of OXTR functional potency to V1aR functional potency, 'OT only' = function at OXTR only
T1 construct: expressed in transfected cells
T1 sequence (P30559 1-389): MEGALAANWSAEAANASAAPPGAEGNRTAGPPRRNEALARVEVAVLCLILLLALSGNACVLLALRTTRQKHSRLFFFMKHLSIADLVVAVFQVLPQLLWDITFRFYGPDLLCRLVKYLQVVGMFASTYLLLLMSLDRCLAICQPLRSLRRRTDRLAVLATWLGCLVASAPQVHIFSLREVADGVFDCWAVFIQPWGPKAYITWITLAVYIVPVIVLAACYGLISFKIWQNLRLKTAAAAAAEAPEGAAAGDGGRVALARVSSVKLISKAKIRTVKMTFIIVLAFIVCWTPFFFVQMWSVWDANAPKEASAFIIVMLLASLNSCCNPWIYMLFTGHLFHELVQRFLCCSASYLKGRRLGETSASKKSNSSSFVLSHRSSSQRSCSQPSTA
Description: (§1) Human embryonic kidney cells (HEK-293) transfected to stably express untagged hOTR and V1aR using the Flp-In™ T-REx™ system (Life Technologies, Carlsbad, Calif. USA) were established as reported in Jorgensen et al., 2016 (the entire disclosure of which is hereby incorporated by reference). Cells were subsequently maintained in 10% DMEM containing hygromycin (80 μg/ml), penicillin (100 U/ml), streptomycin (0.1 mg/ml) and blasticidine S hydrochloride (15 μg/ml).
(§2) OTR or V1aR-expressing HEK-293 cells were seeded onto poly-L-lysine (100 μg/ml)-coated 384-well plates at a density of 8.75×10^3 cells per well. Cells were incubated in tetracycline (2 μg/mL) for 48 h to induce receptor expression. Intracellular IP1 levels induced by activation of the Gq protein coupled to the OTR and V1aR was indexed using the HTRF IP-One kit (CisBio International, Bedford, Mass., USA), according to manufacturer's protocol. For agonist assessment, cells were incubated with logarithmically-spaced concentrations of compounds (1 nM-100 μM) for 1 h prior to the addition of Ab-Cryptate and IP1-d2 for 1 h. The contents of each well were transferred to a white-walled proxy plate (Perkin Elmer) and fluorescence read using a Pherastar Microplate reader (BMG Labtech, Cary, N.C., USA). For antagonist assessment, cells were incubated an ˜EC70 concentration of OT (30 nM) or AVP (25 nM) mixed with compounds (1 nM-100 μM) or vehicle control for 1 h. IP1 levels in the presence of compounds and OT or AVP were expressed as a percentage of levels seen with OT or AVP in the presence of vehicle control. Concentration response curves for OT and AVP were determined after 5 min incubation in drug or vehicle, and the data fitted using GraphPad PRISM to a 4-parameter logistic equation of the form y=Min+(Max−Min)/(1+10^((logEC50−X)*n)) where X is drug concentration and n is the H-ill slope. Data represent the mean±s.d. of at least 3 independent experiments, each in duplicate.

[2] = molecular target: T1, oxytocin receptor (OXTR), hOTR; assay: Competition radioligand binding, [3H]-oxytocin, OTR-expressing HEK293 membranes; settings: [3H]-oxytocin 10 nM, 90 min 4 °C
Description: as §1
(§3) To induce receptor expression, cells were incubated with tetracycline (2 μg/mL) for 48 h. PBS with 5 mM EDTA (pH 7.4) was used to detach OTR and V1aR-expressing HEK293 cells from culture flasks. Harvested cells were centrifuged at 1200 g for 5 min and were resuspended in homogenization buffer (50 mM HEPES, 5 mM EDTA, 5 mM MgCl2; pH 7.4) prior to homogenization using an Ultra-Turrax homogeniser (IKA, Wilmington, N.C., USA). Homogenates were centrifuged three times for 30 min at 48.000 g, 4° C. for 30 min and membrane pellets resuspended in 50 mM Tris HCl, 5 mM MgCl2 (pH 7.4). A bicinchoninic acid assay was used according to the manufacturer's protocol (Bio-Rad, Hercules. Calif., USA) to measure final protein concentration. Membranes were stored at −80° C. until use in competition radioligand binding studies.
(§4) Reactions were incubated for 90 min at 4° C. to reach equilibrium, and terminated by rapid filtration over glass fibre filters (Whatman GF/A […]; Millipore, Darmstadt, Germany), and washing with ice-cold reaction buffer. Filters were dried, then incubated with Microscint 0 (Perkin Elmer) for 30 min before radioactivity was detected with a Microbeta2 2450 microplate-reader (Perkin Elmer). […] Specific binding in the presence of compounds was expressed as a percentage of specific binding in the presence of vehicle control. A sum-of-squares F-test was used to compare the goodness of fit of one-site, two-site and sigmoidal with variable hill slope binding models, and to calculate Ki's using Graphpad Prism (Graphpad Software, La Jolla, Calif., USA).

[3] = molecular target: T2, vasopressin 1a receptor (V1aR) (Homo sapiens, UniProt P37288); assay: Competition radioligand binding, [3H]-vasopressin, V1aR-expressing HEK293 membranes; settings: [3H]-vasopressin 2 nM, 90 min 4 °C
T2 construct: expressed in transfected cells
Description: as §1, §3, §4

[4] = molecular target: T2, vasopressin 1a receptor (V1aR); assay: IP1 accumulation assay, V1aR-expressing HEK-293 cells (agonist and antagonist assessment); type: cell-based; settings: for EC50: agonist assessment, IP1, 1 h; for IC50: antagonist assessment vs AVP 25 nM (~EC70), IP1
Description: Cells were subsequently maintained in 10% DMEM containing hygromycin (80 μg/ml), penicillin (100 U/ml), streptomycin (0.1 mg/ml) and blasticidine S hydrochloride (15 μg/ml).
as §2, with “Cells” for “OTR or V1aR-expressing HEK-293 cells were seeded onto poly-L-lysine (100 μg/ml)-coated 384-well plates at a density of 8.75×10^3 cells per well. Cells”, “For antagonist assessment, cells were incubated an ˜EC70 concentration of OT (30 nM) or AVP (25 nM) mixed with compounds (1 nM-100 μM) or vehicle control for 1 h.” left out

T2 sequence (P37288 whole entry): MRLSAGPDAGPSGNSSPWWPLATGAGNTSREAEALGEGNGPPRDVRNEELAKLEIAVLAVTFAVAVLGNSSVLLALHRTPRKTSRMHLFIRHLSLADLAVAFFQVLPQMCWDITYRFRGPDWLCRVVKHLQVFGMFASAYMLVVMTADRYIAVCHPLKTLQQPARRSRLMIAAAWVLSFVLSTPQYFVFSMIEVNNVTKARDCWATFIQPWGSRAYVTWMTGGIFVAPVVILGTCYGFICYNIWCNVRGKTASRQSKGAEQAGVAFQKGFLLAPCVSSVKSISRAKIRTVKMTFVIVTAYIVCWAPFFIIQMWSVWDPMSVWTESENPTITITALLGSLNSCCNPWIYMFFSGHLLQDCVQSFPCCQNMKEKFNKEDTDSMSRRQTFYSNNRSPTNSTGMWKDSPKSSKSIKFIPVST

SMILES | Emax [1] [%] | EC50 (OXTR agonist potency, mean ± s.d.) [1] [µM] | EC50 [1] [µM] | IC50 [1] [µM] | Ki [2] [µM] | Ki [3] [µM] | melting point | EC50 [4] [µM] | IC50 [4] [µM] | OV function [1]
COc1cc(CN2Cc3cnn(C)c3Nc3ccccc32)cc(OC)c1 [WJ0625, 5-(3,5-Dimethoxybenzyl)-1-methyl-1,4,5,10-tetrahydrobenzo[b]pyrazolo[3,4-e][1,4]diazepine] |  |  | > 10 | > 10 | > 10 | > 10 | 210 to 212 °C | > 10 | > 10 | 
COc1ccc(C(=O)N2Cc3cnn(C)c3Nc3ccccc32)cc1 [WJ0661, (4-Methoxyphenyl)(1-methyl-4,10-dihydrobenzo[b]pyrazolo[3,4-e][1,4]diazepin-5 (1H)-yl)methanone] | 8.14 | 0.2038 ± 0.0548 | 0.197 ± 0.0603 |  | 0.272 ± 0.0876 | 0.024 ± 0.0034 | 296 to 298 °C (dec.) | > 10 | 0.462 ± 0.136 | 0.43
Cn1ncc2c1Nc1ccccc1N(C(=O)c1ccc(C(F)(F)F)cc1)C2 [WJ0677, (1-Methyl-4,10-dihydrobenzo[b]pyrazolo[3,4-e][1,4]diazepin-5 (1H)-yl)(4-(trifluoromethyl)phenyl)methanone] | 7.72 | 0.1933 ± 0.0113 | 0.179 ± 0.0378 |  | 0.56 ± 0.111 | 0.0969 ± 0.0335 | 204 to 206 °C | > 10 | > 10 | 
COc1ccc2c(c1)N(C(=O)c1ccccc1)Cc1cnn(C)c1N2 [WJ07117MeO, (7-Methoxy-1-methyl-4,10-dihydrobenzo[b]pyrazolo[3,4-e][1,4]diazepin-5 (1H)-yl)(phenyl)methanone] |  |  | > 10 | > 10 | > 10 | 0.374 | 248 to 250 °C | > 10 | > 10 | 
Cc1ccc(CN2Cc3cnn(C)c3Nc3ccccc32)cc1C [WJ05105, 5-(3,4-Dimethylbenzyl)-1-methyl-1,4,5,10-tetrahydrobenzo[b]pyrazolo[3,4-e][1,4]diazepine] |  |  | > 10 | > 10 | > 10 | > 10 | 171 to 173 °C | > 10 | > 10 | 

The remaining lines, values ahead:

Emax [1] [%] | EC50 (OXTR agonist potency, mean ± s.d.) [1] [µM] | EC50 [1] [µM] | IC50 [1] [µM] | Ki [2] [µM] | Ki [3] [µM] | melting point | EC50 [4] [µM] | IC50 [4] [µM] | OV function [1] | SMILES
9.67 | 0.2421 ± 0.0217 | 3.53 ± 0.634 | > 10 | > 10 | 0.353 | 247 to 249 °C (dec.) | > 10 | > 10 |  | Cn1ncc2c1Nc1ccccc1N(C(=O)c1cccnc1)C2 [WJ0753, (1-Methyl-4,10-dihydrobenzo[b]pyrazolo[3,4-e][1,4]diazepin-5 (1H)-yl)(pyridin-3-yl)methanone]
33.3 | 0.834 ± 0.0611 | 4.88 ± 0.141 |  | > 10 | 0.377 ± 0.106 | 283 to 285 °C | > 10 | > 10 |  | Cn1ncc2c1Nc1ccccc1N(C(=O)C13CC4CC(CC(C4)C1)C3)C2 [WJ0687, ((3r,5r,7r)-Adamantan-1-yl)(1-methyl-4,10-dihydrobenzo[b]pyrazolo[3,4-e][1,4]diazepin-5 (1H)-yl)methanone]
 |  | > 10 | 1.76 | 0.0926 ± 0.01 | 0.0046 ± 0.0013 | > 300 °C | > 10 | 0.205 ± 0.0576 | 8.59 | Cn1ncc2c1Nc1ccccc1N(C(=O)c1cc(O)cc(O)c1)C2 [WJ0623, (3,5-Dihydroxyphenyl)(1-methyl-4,10-dihydrobenzo[b]pyrazolo[3,4-e][1,4]diazepin-5 (1H)-yl)methanone]
 |  | > 10 | > 10 | > 10 | 1.12 ± 0.26 | 269 to 271 °C (dec.) | > 10 | > 10 |  | Cn1ncc2c1Nc1ccccc1N(C(=O)c1ccccn1)C2 [WJ0759, (1-Methyl-4,10-dihydrobenzo[b]pyrazolo[3,4-e][1,4]diazepin-5 (1H)-yl)(pyridin-2-yl)methanone]
26.7 | 0.6677 | 4.15 ± 1.34 |  | > 10 | 2.21 | 262 to 264 °C (dec.) | > 10 | > 10 |  | Cn1ncc2c1Nc1ccccc1N(C(=O)C13CC4CC(F)(CC(F)(C4)C1)C3)C2 [WJ0807dF, ((1r,3R,5S,7r)-3,5-Difluoroadamantan-1-yl)(1-methyl-4,10-dihydrobenzo[b]pyrazolo[3,4-e][1,4]diazepin-5 (1H)-yl)methanone]
8 |  | 9.19 ± 1.62 |  | > 10 | 0.0447 ± 0.005 |  | > 10 | > 10 | <0.92 | Cc1cc(C(=O)N2Cc3cnn(C)c3Nc3ccccc32)ccc1CN [WJ0761]
12.9 | 0.3218 | 0.438 ± 0.127 |  | 1.62 ± 0.243 | 0.455 ± 0.112 |  | > 10 | > 10 |  | Cn1ncc2c1Nc1ccccc1N(C(=O)c1ccc(Cl)c(Cl)c1)C2 [WJ0824, (3,4-Dichlorophenyl)(1-methyl-4,10-dihydrobenzo[b]pyrazolo[3,4-e][1,4]diazepin-5 (1H)-yl)methanone]
